The source of these data is US10040804B2, “Compounds targeting proteins, compositions, methods, and uses thereof” (BioTheryX, Inc., priority 2016, dated 2018).

The structures appear in SMILES notation.

One test deals with IL-2. As to the kind of experiment: anti-CD3-induced IL-2 secretion in PBMCs. The test is classed as cell-based. The note with it: Homo sapiens, PBMC, anti-CD3 stimulated PBMCs, 24 h, DMSO = 1.0, read-out: Fold Change IL-2; for fold induction at 1 µM: compound concentration 1 μM; for fold induction at 0.1 µM: compound concentration 0.1 μM. Summed up: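 PBMCs stimulated on plates coated with 1 ug/mL anti-CD3 (OKT3), with compound or DMSO, 24 h. Supernatant IL-2 measured by Mesoscale; activity expressed as fold difference from DMSO-stimulated control.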

The subject of a further test is Molm-13 cells. Put plainly: Molm-13 cell viability (CellTiter-Glo). In kind it is cell-based. The conditions noted are these: Homo sapiens, MOLM-13, read-out: % Inhibition (MOLM-13 Cell Viability); for cytotoxicity at 10 µM: compound concentration 10 μM. Summed up: (§1)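 Molm-13 (RPMI-1640, 10% FBS) and H1048 (DMEM:F12, 5% FBS with supplements) plated at 20,000 cells/well, treated with compound or 0.1% DMSO for 3 days at 37° C., 5% CO2. Viability read by CellTiter-Glo luminescence after 10 min.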

In the next test the target is T1, GSPT1 (Homo sapiens, UniProt P15170).
T1 construct: Whole cell extracts were prepared using RIPA buffer according to manufacturer's protocol (Pierce); endogenous in cells
As to the kind of experiment: GSPT1 protein levels by Western Blot analysis. The test is classed as cell-based. The conditions noted are these: DMSO = 100.00; for remaining activity at 0.1 µM: 100 nM compound concentration; for remaining activity at 1 µM: 1 μM compound concentration. A digest of the protocol: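 Molm-13 AML cells in RPMI 1640 with 10% FBS, about 10^6 cells/mL, treated with compound or DMSO for 6-8 h. RIPA whole-cell lysates resolved by SDS-PAGE, blotted and probed for GSPT1 with β-actin reference; IRDye secondary antibodies quantified by LI-COR Odyssey infrared imaging.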
In general terms: In western blotting, separated proteins are transferred to a membrane and probed.

A further test concerns TNF-α. As to the kind of experiment: TNF-α expression in LPS stimulated PBMCs (Meso Scale). The test is classed as cell-based, human. The conditions noted are these: Homo sapiens, PBMC; for inhibition at 1 µM: compound concentration 1 μM; for inhibition at 0.1 µM: compound concentration 0.1 μM. A digest of the protocol: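 Thawed primary human PBMCs, 200,000 cells/well in RPMI-1640/10% FBS, pretreated with compound 1 h, then stimulated with 100 ng/mL LPS for 18-24 h. Supernatant TNF-α measured by Meso Scale assay; activity expressed as percentage of LPS-induced level, DMSO as negative control.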

A further test has as its system IL-6. Put plainly: IL-6 expression in LPS stimulated PBMCs (Meso Scale). The note with it: Homo sapiens, PBMC, LPS-stimulated PBMCs; for inhibition at 1 µM: compound concentration 1 μM; for inhibition at 0.1 µM: compound concentration 0.1 μM. The test is classed as cell-based, human. Summed up:
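Thawed human PBMCs at 200,000 cells/well in RPMI-1640/10% FBS were pretreated with compound or DMSO for 1 h, then stimulated with 100 ng/mL LPS for 18–24 h. Supernatant IL-6 was measured by Meso Scale assay and expressed as % of LPS-induced activity.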

A further test relates to H1048 cells. Put plainly: H1048 cell viability (CellTiter-Glo). The test is classed as cell-based. The conditions noted are these: Homo sapiens, NCI-H1048, 72 h, H1048, 3 days, DMSO = 100.00; for viability at 1 µM: 1 μM compound concentration; for viability at 10 µM: 10 μM compound concentration. Summed up: as §1
For orientation: Cellular ATP, detected with luciferase, serves as a proxy for viable cell number.

A further test has as its system MDA-MB-231 cells. Put plainly: MDA-MB-231 cell viability (CellTiter-Glo). In kind it is cell-based. The conditions noted are these: Homo sapiens, 72 h, 3 days, DMSO = 100.00; for viability at 1 µM: 1 μM compound concentration; for viability at 10 µM: 10 μM compound concentration. Summed up:
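Cells in DMEM with 10% FBS, seeded at 10,000 per well, exposed to compound (0.1% DMSO control) for 3 days at 37° C, 5% CO2. Viability read by CellTiter-Glo luminescence after 10 min shaking.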

For the next test, the system named is IL-1β. Put plainly: IL-1β expression in LPS stimulated PBMCs (Meso Scale). The test is classed as cell-based, human. The note with it: Homo sapiens, PBMC; for inhibition at 1 µM: compound concentration 1 μM; for inhibition at 0.1 µM: compound concentration 0.1 μM. Summed up: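 Human PBMCs (200,000 cells/well in RPMI-1640/10% FBS) were pretreated with compound for 1 h, then stimulated with 100 ng/mL LPS for 18-24 h. IL-1β in supernatant was measured by Meso Scale assay. Activity is expressed as percentage of LPS-induced level, with DMSO-treated wells as negative control.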

T1 sequence (P15170 whole entry): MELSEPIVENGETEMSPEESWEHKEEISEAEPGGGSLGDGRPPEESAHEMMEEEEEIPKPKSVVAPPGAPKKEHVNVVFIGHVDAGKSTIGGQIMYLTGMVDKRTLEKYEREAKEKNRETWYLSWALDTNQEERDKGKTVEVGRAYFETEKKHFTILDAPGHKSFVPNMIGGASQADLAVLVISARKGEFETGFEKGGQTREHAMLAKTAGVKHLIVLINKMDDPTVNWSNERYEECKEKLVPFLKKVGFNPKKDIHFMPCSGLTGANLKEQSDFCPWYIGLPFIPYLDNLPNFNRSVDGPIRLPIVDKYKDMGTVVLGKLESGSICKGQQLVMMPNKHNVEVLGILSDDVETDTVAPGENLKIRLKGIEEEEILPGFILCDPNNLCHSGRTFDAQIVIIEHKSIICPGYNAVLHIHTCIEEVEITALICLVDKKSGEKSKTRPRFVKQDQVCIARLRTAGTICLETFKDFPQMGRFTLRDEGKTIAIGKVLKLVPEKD
T1 sequence (Q96SW2 whole entry, further chain): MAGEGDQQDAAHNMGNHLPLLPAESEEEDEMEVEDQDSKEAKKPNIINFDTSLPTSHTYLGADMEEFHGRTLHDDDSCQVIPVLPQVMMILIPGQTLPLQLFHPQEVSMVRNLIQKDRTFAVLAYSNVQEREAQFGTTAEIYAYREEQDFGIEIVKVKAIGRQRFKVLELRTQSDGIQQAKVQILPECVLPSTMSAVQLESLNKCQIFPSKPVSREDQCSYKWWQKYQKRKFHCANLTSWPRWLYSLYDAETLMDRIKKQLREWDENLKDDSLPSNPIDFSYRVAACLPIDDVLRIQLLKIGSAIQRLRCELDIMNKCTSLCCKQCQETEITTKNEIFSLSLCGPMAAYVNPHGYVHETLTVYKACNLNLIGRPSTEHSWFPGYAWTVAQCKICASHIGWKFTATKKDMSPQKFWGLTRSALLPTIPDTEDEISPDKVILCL
T1 sequence (Q16531 whole entry partner): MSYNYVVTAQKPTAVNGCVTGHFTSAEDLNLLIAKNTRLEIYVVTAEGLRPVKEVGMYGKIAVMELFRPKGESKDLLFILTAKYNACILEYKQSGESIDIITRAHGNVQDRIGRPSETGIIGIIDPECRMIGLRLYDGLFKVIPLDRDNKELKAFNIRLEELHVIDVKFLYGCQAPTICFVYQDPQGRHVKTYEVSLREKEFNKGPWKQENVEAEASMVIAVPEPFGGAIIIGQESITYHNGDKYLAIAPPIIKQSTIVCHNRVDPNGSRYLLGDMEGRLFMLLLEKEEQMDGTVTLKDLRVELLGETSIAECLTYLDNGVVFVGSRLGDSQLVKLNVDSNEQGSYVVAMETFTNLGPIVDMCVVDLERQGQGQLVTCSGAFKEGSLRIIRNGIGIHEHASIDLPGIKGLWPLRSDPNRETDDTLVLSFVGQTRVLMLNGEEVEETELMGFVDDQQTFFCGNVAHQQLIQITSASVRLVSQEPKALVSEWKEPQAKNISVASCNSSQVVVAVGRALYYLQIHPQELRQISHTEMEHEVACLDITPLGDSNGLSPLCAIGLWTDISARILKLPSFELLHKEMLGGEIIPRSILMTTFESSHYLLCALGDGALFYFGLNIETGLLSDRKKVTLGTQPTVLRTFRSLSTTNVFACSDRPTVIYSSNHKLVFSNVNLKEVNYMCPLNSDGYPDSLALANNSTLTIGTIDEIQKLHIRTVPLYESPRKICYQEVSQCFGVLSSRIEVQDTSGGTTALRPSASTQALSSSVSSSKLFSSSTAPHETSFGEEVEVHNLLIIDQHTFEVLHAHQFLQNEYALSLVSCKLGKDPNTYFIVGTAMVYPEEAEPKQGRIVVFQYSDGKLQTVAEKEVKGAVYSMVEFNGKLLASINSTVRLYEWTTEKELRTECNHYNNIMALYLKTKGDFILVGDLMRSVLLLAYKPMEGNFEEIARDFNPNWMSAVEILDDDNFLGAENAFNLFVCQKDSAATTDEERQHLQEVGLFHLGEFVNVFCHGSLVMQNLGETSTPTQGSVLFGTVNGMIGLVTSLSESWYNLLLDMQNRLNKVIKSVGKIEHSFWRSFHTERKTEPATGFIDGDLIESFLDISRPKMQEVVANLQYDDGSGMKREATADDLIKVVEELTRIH

One may read the remaining activity as the signal under treatment as a percentage of the control signal. By inhibition is commonly meant the share of the control response that was lost under treatment. A word on the viability: it is a read-out of living cells in per cent, often relative to untreated cells. Consider `Cc1ccc(NC(=O)NCc2scc3c2CN([C@H]2CCCC(=O)NC2=O)C3=O)cc1Cl` [Compound 30, (S)-1-(3-Chloro-4-methylphenyl)-3-((5-(2,7-dioxoazepan-3-yl)-4-oxo-5,6-dihydro-4H-thieno[3,4-c]pyrrol-1-yl)methyl)urea], for which the fold induction at 1 µM with IL-2 was determined as 0.4. Further, in the test with Molm-13 cells (compound concentration 1 μM), the cytotoxicity at 1 µM is 50%. In addition, on GSPT1, the remaining activity at 0.1 µM came to 42.7%. Besides, at GSPT1, the remaining activity at 1 µM was 5.28%. Further, the inhibition at 1 µM in the test with TNF-α is 84%; with IL-6 it was 98%; with IL-1β it was 81%. Moreover, the viability at 1 µM amounted to 8.55% in the test with H1048 cells and 52.9% in the test with MDA-MB-231 cells. Also, the viability at 10 µM is 8.34% in the test with H1048 cells and 26.3% in the test on MDA-MB-231 cells.
As to `Cc1ccc(CC(=O)NCc2scc3c2CN([C@H]2CCCC(=O)NC2=O)C3=O)cc1Cl` [Compound 31, (S)-2-(3-Chloro-4-methylphenyl)-N-((5-(2,7-dioxoazepan-3-yl)-4-oxo-5,6-dihydro-4H-thieno[3,4-c]pyrrol-1-yl)methyl)acetamide], the fold induction at 1 µM in the test with IL-2 worked out at 1.7. Moreover, the cytotoxicity at 10 µM in the test on Molm-13 cells amounted to 12%. Also, at GSPT1, the remaining activity at 0.1 µM came to 131%. Besides, the remaining activity at 1 µM at GSPT1 turned out to be 108%. In addition, the results for the inhibition at 1 µM with TNF-α, with IL-6 and in the test with IL-1β were 80%, 40% and 76%, respectively. In addition, the values for the viability at 1 µM in the test with H1048 cells and in the test with MDA-MB-231 cells were 84.3% and 103%, respectively. Further, the viability at 10 µM was found to be 26.8% in the test on H1048 cells and 107% in the test on MDA-MB-231 cells.
Regarding `O=C1CCC[C@H](N2Cc3c(csc3CNC(=O)Nc3ccc(C(F)(F)F)c(Cl)c3)C2=O)C(=O)N1` [Compound 32, (S)-1-(3-Chloro-4-(trifluoromethyl)phenyl)-3-((5-(2,7-dioxoazepan-3-yl)-4-oxo-5,6-dihydro-4H-thieno[3,4-c]pyrrol-1-yl)methyl)urea], in the test with IL-2, the fold induction at 0.1 µM turned out to be 0.8. The cytotoxicity at 0.5 µM in the test with Molm-13 cells (compound concentration 0.5 μM) is 25%. At GSPT1, the remaining activity at 0.1 µM came out at 61.7%. The remaining activity at 1 µM on GSPT1 came out at 29.3%. Further, the figures for the inhibition at 0.1 µM in the test with TNF-α, in the test with IL-6 and in the test on IL-1β were 62%, 65% and 67%, respectively. For the same compound, the viability at 1 µM in the test with H1048 cells came out at 10.6%; with MDA-MB-231 cells, 91.2%. The viability at 10 µM in the test on H1048 cells came out at 10.8%; in the test with MDA-MB-231 cells it was 44.3%.
Turning to `Cc1ccc(CNC(=O)NCc2scc3c2CN(C2CCC(=O)NC2=O)C3=O)cc1Cl` (stereo not drawn) [Compound 33, 1-(3-Chloro-4-methylbenzyl)-3-((5-(2,6-dioxopiperidin-3-yl)-4-oxo-5,6-dihydro-4H-thieno[3,4-c]pyrrol-1-yl)methyl)urea], the fold induction at 0.1 µM in the test with IL-2 stood at 0.3. Moreover, the cytotoxicity at 0.003 µM in the test on Molm-13 cells (compound concentration 0.003 μM) was 50%. In addition, the remaining activity at 0.1 µM on GSPT1 is 5.9%. Besides, the remaining activity at 1 µM at GSPT1 was 5.5%. For the same compound, the inhibition at 0.1 µM stood at 95% with TNF-α, 99% in the test on IL-6 and 95% in the test on IL-1β. The results for the viability at 1 µM in the test with H1048 cells and in the test with MDA-MB-231 cells were 8.76% and 21.7%, respectively. Further, the viability at 10 µM stood at 8.21% in the test on H1048 cells and 19.8% in the test with MDA-MB-231 cells.
Turning to `Cc1ccc(CNC(=O)NCc2scc3c2CN([C@H]2CCCC(=O)NC2=O)C3=O)cc1Cl` [Compound 34, (S)-1-(3-Chloro-4-methylbenzyl)-3-((5-(2,7-dioxoazepan-3-yl)-4-oxo-5,6-dihydro-4H-thieno[3,4-c]pyrrol-1-yl)methyl)urea], the fold induction at 1 µM in the test with IL-2 stood at 1.6. Further, in the test with Molm-13 cells, the cytotoxicity at 10 µM came out at 99%. Further, at GSPT1, the remaining activity at 0.1 µM was determined as 84.9%. The remaining activity at 1 µM at GSPT1 was 37.5%. The figures for the inhibition at 1 µM in the test with TNF-α, with IL-6 and in the test on IL-1β were 69%, 39% and 70%, respectively. The viability at 1 µM worked out at 12.9% in the test on H1048 cells and 102% in the test with MDA-MB-231 cells. For the same compound, the viability at 10 µM is 8.34% with H1048 cells and 44.4% with MDA-MB-231 cells.
Turning to `Cc1ccc(NC(=O)NCc2cc3c(s2)C(=O)N([C@H]2CCCC(=O)NC2=O)C3)cc1Cl` [Compound 35, (S)-1-(3-Chloro-4-methylphenyl)-3-((5-(2,7-dioxoazepan-3-yl)-6-oxo-5,6-dihydro-4H-thieno[2,3-c]pyrrol-2-yl)methyl)urea], in the test with IL-2, the fold induction at 1 µM was 1.4. In the test on Molm-13 cells, the cytotoxicity at 10 µM came out at 93%. Further, the remaining activity at 0.1 µM on GSPT1 was 112%. The remaining activity at 1 µM at GSPT1 is 44.5%. Moreover, the inhibition at 1 µM came out at 39% with TNF-α, 16% in the test on IL-6 and 44% in the test on IL-1β. Besides, the viability at 1 µM worked out at 15.5% in the test with H1048 cells and 99% in the test on MDA-MB-231 cells. Also, the viability at 10 µM in the test on H1048 cells came out at 12.4%; in the test on MDA-MB-231 cells it was 64.8%.
For `Cc1cc(C)c(NC(=O)NCc2scc3c2CN([C@H]2CCCC(=O)NC2=O)C3=O)cc1Cl` [Compound 36, (S)-1-(5-Chloro-2,4-dimethylphenyl)-3-((5-(2,7-dioxoazepan-3-yl)-4-oxo-5,6-dihydro-4H-thieno[3,4-c]pyrrol-1-yl)methyl)urea], the fold induction at 1 µM in the test with IL-2 came out at 0.8. Moreover, the cytotoxicity at 10 µM in the test with Molm-13 cells turned out to be 100%. Moreover, the remaining activity at 0.1 µM at GSPT1 came to 92.9%. Moreover, the remaining activity at 1 µM on GSPT1 was 32.6%. The inhibition at 1 µM in the test with TNF-α amounted to 33%; in the test with IL-6 it was 38%; with IL-1β, 40%. Besides, the viability at 1 µM in the test on H1048 cells amounted to 10.6%; in the test on MDA-MB-231 cells it was 101%. The viability at 10 µM came out at 7.51% in the test on H1048 cells and 53.4% with MDA-MB-231 cells.
On to `Cc1ccc(NC(=O)NCc2scc3c2CN([C@H]2CCCC(=O)NC2=O)C3=O)cn1` [Compound 37, (S)-1-((5-(2,7-Dioxoazepan-3-yl)-4-oxo-5,6-dihydro-4H-thieno[3,4-c]pyrrol-1-yl)methyl)-3-(6-methylpyridin-3-yl)urea], for which the fold induction at 1 µM with IL-2 turned out to be 1.1. The cytotoxicity at 10 µM with Molm-13 cells came out at 51%. In addition, the remaining activity at 0.1 µM at GSPT1 was found to be 124%. The remaining activity at 1 µM at GSPT1 is 154%. Further, the inhibition at 1 µM with TNF-α was found to be 6%; in the test with IL-6, 3%; in the test with IL-1β, 4%. In addition, the viability at 1 µM in the test on H1048 cells was determined as 55%; with MDA-MB-231 cells it was 106%. Also, the viability at 10 µM in the test on H1048 cells came to 10.5%; in the test with MDA-MB-231 cells, 97.7%.
On to `Cc1cnc(Nc2ccc(OCCCNC(=O)NCc3scc4c3CN([C@H]3CCCC(=O)NC3=O)C4=O)cc2)nc1Nc1cccc(S(=O)(=O)NC(C)(C)C)c1` [Compound 61, (S)—N-(tert-Butyl)-3-((2-((4-(3-(3-((5-(2,7-dioxoazepan-3-yl)-4-oxo-5,6-dihydro-4H-thieno[3,4-c]pyrrol-1-yl)methyl)ureido)propoxy)phenyl)amino)-5-methylpyrimidin-4-yl)amino)benzenesulfonamide], for which, in the test with IL-2 (compound concentration 10 μM), the fold induction at 10 µM stood at 0.8. Also, the cytotoxicity at 2.8 µM in the test on Molm-13 cells (compound concentration 2.8 μM) came out at 50%. The figures for the inhibition at 10 µM in the test with TNF-α (compound concentration 10 μM), with IL-6 (compound concentration 10 μM) and with IL-1β (compound concentration 10 μM) were 66%, 11% and 53%, respectively.
